Values of other authors, collected in patent US20210015755A1, “SECNIDAZOLE SOFT GELATIN CAPSULE AND METHODS AND USES THEREOF” (Lupin Inc., priority 2019, published 2021).

## Cc1ncc([N+](=O)[O-])n1CC(C)O (stereo not shown) [Secnidazole, 1-(2-hydroxypropyl)-2-methyl-5-nitromidazole]
In vivo
  excreted intact in the urine: 50%
Oral administration
  absorption after oral administration: rapidly and completely absorbed

## Cc1ncc([N+](=O)[O-])n1CCO [metronidazole]
Bacterial vaginosis; 500 mg ovule formulation versus 37.5 mg metronidazole gel (Sanchez et al.)
  effectiveness in the treatment of bacterial vaginosis: significantly more effective
Bacterial vaginosis; intravaginal 750 mg ovule formulation versus 500 mg ovule composition (Aguin et al.)
  cure rates: higher cure rates
